The values below come from patent US20250170248A1, “SMARCA DEGRADERS AND USES THEREOF” (Kymera Therapeutics, Inc., priority 2021, published 2025).

The Dmax is the greatest extent of degradation seen. By DC50 is commonly meant the midpoint of the concentration-degradation curve.

Common to all, as to format: cell-based
Assay [1] concerns the target T1, SMARCA2 (Homo sapiens, UniProt P51531). Briefly: SMARCA2 Western blot degradation in MV4-11 cells. Further details: SMARCA2/SMARCA4 protein degradation selectivity in MV4-11 cells; endogenous in cells; host or cells: MV4-11. The note with it: for Dmax: MV4-11, MV4-11 cells, read-out: SMARCA2 MSD MV411 degradation 24 h: average Dmax %; for Dmax / DC50: 24 h; for DC50 / Selectivity in MV411: MV4-11 cells; for DC50: read-out: SMARCA2 MSD MV411 degradation 24 h: Mean external-Abs DC50; for Selectivity in MV411: SMARCA2/4 selectivity. (In general: Immunoblotting shows a protein as a band on a membrane.)

The target of assay [2] is T1, SMARCA2. Kind of assay: MSD SMARCA2 degradation in A549 cell line. The note with it: 24 h; for Dmax: A549, A549 cells; for DC50: A549 cells, read-out: SMARCA2 MSD A549 degradation 24 h: Average external-Abs DC50. As for the experimental part:
Example 10. MSD SMARCA2 Degradation in A549 Cell Line
Cells were seeded into 96-well plates (A549 cells: 2×10^4 cells/well/100 ul media) and incubated overnight. The next day, 200 nL compound were added into the intermediate plate with Echo (Labcyte 550) from source plate containing a 3-fold serial dilution from top concentration of 1 mM. The culture medium was changed with 8 0ul of fresh medium and 80 μL of 2× compound solution was added into the well to make a final concentration of 1000 nM, 333.3 nM, 111.1 nM, 37.04 nM, 12.35 nM, 4.115 nM, 1.372 nM, 0.457 nM, 0.152 nM and 0 nM (DMSO). The wells were mixed and then incubated for 24 hours. The media was aspirated from the cultures and 60 ul pre-chilled PIPA lysis buffer (Boston BioProducts BP-115D) with protease/phosphatase inhibitor (Roche 05892791001/Roche 04906837001) was added into the well to lyze the cells for 20 minutes at 4° C. The MSD plate (L15XA) was coated with 40 uL cell lysate and incubated at 4° C. overnight. The next day, the plate was washed three times with TBST (CST #9997S), 150 ul/well. The MSD plates was blocked with 150 ul blocking buffer per well and shaked for 1 hr at RT, 600 rpm. The blocking buffer was 3% Blocker A (MSD, R93BA-4) in TBST. The MSD plate was washed three times with 150 uL/well of TBST and 25 ul/well of detection antibody (Rabbit anti-SMARCA2/BRM antibody, 100 μg/mL, ab223735) was added at final concentration of 1 μg/mL diluted in 1% Blocking buffer and shaken for 1 hour at RT, 600 rpm. The MSD plate was washed three times with 150 ul/well of TBST and 25 ul/well of SULFO-TAG anti-rabbit antibody (MSD, R32AB-1) was added at final concentration of 1 μg/ml diluted in 1% Blocking buffer and shaken for 1 hour at RT, 600 rpm. The MSD plate was washed three times with 150 uL/well of TBST and 150 ul/well of 2× MSD reading buffer diluted from 4× (MSD, R92TC-2) with water was added. Lastly, the MSD instrument was read.
The letter codes for SMARCA2 degradation potency (DC50) include: A (<10 nM), B (10-50 nM), C (>50-100 nM), and D (>100 nM). The letter codes for the percentage of SMARCA degradation after 24 hours (Dmax %) include: A (>90% degradation), B (>70-90% degradation), C (50-70% degradation), and D (<50% degradation).

The next assay deals with T2, SMARCA4 (Homo sapiens, UniProt P51532).
T2 construct: SMARCA2/SMARCA4 protein degradation selectivity in MV4-11 cells; endogenous in cells; host or cells: MV4-11
T2 sequence (P51532 whole entry): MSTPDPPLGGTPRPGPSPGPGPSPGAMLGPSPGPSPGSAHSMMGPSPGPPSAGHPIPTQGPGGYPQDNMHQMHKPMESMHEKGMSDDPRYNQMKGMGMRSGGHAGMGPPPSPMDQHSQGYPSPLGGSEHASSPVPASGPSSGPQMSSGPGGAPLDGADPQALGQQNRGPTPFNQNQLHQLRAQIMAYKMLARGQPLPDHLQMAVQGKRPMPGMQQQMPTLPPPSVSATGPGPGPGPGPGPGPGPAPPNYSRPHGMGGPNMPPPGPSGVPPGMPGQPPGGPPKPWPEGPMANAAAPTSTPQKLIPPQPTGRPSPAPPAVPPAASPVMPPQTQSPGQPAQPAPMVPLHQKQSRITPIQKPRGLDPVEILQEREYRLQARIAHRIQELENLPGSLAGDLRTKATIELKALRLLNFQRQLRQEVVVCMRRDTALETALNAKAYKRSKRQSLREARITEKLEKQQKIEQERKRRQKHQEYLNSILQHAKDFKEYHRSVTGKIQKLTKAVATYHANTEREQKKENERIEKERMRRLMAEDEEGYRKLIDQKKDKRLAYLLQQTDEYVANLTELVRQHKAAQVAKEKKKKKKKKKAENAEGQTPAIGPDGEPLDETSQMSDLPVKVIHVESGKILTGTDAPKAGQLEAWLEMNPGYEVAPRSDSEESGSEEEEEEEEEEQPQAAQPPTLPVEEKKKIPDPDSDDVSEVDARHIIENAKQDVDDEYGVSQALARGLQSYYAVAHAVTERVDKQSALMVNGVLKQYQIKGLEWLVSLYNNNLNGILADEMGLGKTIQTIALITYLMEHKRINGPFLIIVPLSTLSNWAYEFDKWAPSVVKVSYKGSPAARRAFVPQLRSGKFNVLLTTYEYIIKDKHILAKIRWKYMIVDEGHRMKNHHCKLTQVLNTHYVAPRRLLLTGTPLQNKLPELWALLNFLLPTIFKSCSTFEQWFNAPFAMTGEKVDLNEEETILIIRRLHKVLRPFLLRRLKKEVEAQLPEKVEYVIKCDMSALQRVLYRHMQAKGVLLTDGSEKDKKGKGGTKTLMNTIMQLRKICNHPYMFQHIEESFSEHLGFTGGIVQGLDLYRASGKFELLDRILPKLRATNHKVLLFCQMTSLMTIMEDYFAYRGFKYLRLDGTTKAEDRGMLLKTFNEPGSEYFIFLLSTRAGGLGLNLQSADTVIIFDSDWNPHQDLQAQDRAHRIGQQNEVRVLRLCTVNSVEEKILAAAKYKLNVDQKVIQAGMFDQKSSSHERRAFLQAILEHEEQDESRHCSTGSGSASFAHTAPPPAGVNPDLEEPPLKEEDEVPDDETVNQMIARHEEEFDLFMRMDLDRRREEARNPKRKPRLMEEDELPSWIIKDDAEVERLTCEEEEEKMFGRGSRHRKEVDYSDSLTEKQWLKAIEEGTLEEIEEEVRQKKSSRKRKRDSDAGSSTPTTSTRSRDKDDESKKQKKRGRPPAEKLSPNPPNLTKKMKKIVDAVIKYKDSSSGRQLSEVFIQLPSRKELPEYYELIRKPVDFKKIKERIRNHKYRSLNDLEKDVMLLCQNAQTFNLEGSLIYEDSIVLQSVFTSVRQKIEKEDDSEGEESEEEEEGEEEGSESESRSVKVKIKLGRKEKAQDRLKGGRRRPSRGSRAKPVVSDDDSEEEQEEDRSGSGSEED
Briefly: SMARCA4 Western blot degradation in MV4-11 cells. The note with it: 24 h; for Dmax: MV4-11, MV4-11 cells, read-out: SMARCA4 MSD MV411 degradation 24 h: average Dmax %; for DC50: MV4-11 cells, read-out: SMARCA4 MSD MV411 degradation 24 h: Mean external-Abs DC50. Put shortly: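 MV4-11 cells (4×10^6/well) treated with compound for 24 h, lysed in RIPA with protease/phosphatase inhibitors, and SMARCA2, SMARCA4 and beta-actin detected by Western blot with LI-COR readout. Values reported as letter-coded DC50, 24 h Dmax % and SMARCA2/4 selectivity fold.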

T1 sequence (P51531 whole entry): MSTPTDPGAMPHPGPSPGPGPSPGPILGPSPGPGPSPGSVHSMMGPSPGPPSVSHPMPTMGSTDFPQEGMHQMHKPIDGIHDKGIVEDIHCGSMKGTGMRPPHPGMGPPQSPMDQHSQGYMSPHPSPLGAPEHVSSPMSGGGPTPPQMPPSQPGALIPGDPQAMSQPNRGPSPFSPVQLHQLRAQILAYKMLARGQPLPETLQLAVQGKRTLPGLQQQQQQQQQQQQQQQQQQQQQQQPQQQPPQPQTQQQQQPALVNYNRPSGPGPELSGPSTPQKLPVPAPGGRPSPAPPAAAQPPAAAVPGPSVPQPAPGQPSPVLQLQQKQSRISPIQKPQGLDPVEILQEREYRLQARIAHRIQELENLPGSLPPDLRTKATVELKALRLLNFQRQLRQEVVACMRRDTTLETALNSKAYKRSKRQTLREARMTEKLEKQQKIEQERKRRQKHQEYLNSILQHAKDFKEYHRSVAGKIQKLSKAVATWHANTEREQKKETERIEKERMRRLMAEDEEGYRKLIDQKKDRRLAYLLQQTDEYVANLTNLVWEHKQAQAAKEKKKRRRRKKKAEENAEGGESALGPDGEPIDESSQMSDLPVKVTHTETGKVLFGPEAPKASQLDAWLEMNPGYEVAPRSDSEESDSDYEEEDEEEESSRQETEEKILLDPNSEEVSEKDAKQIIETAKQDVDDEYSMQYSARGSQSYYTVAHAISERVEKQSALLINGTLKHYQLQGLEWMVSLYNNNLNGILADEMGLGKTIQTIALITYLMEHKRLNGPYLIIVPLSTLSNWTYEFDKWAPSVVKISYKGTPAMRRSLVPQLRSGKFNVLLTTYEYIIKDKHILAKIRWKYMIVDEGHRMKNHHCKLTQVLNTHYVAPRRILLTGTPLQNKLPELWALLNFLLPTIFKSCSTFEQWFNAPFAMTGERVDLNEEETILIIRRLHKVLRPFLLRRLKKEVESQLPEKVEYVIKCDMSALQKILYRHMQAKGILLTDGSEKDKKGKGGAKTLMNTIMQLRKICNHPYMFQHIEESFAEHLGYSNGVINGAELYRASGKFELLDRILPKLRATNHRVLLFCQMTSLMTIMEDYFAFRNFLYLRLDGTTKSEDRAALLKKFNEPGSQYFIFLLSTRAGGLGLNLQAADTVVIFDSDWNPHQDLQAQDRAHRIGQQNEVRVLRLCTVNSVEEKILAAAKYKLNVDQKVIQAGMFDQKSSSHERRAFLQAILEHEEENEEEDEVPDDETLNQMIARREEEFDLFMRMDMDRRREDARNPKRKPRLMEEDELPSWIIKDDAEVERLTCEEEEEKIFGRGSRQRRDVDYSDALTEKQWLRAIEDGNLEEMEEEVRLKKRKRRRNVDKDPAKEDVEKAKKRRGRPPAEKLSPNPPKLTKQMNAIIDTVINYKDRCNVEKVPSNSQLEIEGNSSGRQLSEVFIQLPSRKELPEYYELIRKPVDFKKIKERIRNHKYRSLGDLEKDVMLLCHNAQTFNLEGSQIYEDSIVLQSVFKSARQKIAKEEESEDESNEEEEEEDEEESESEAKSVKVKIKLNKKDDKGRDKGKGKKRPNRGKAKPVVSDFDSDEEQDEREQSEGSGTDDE

Consider `C#Cc1ccc(CNC(=O)[C@@H]2C[C@@H](O)CN2C(=O)[C@@H](NC(=O)C2CCC3(CC2)CC(N2CCC(N4CCC[C@H](C(=O)N5CCN6c7cc(-c8ccccc8O)nnc7NC[C@H]6C5)C4)CC2)C3)C(C)(C)C)cc1` (single isomer, unassigned) [I-90], for which the maximal degradation (Dmax) at SMARCA2 [1] was 70 to 90%; on SMARCA2 [2], 70 to 90%; at SMARCA4, < 50%. Moreover, the results for the 50% degradation concentration (DC50) at SMARCA2 [1], on SMARCA2 [2] and at SMARCA4 were 10 to 100 nM, > 100 nM and > 100 nM, respectively. In addition, at SMARCA2 [1], the “Selectivity in MV411” value is on record as “C (C (10-100 fold))”.
As to `C[C@H](NC(=O)[C@@H]1C[C@@H](O)CN1C(=O)[C@@H](NC(=O)[C@H]1CCC2(CC1)C[C@H](N1CCC(c3cnc(N4CCN5c6cc(-c7ccccc7O)nnc6NC[C@H]5C4)nc3)CC1)C2)C(C)(C)C)c1ccc(-c2ccnn2C)cc1` (single isomer, unassigned) [I-21], at SMARCA2 [1], the greatest degradation seen (Dmax) was > 90%, the DC50 was < 1 nM and the “Selectivity in MV411” value was “C (C (10-100 fold))”. At SMARCA2 [2], the Dmax is > 90% and the 50% degradation concentration (DC50) fell in the range of 10 to 50 nM. Moreover, on SMARCA4, the Dmax is > 90% and the DC50 was 1 to 10 nM.
For the compound `C#Cc1ccc(CNC(=O)[C@@H]2C[C@@H](O)CN2C(=O)[C@@H](NC(=O)N2CC3(CC(N4CCC(c5cnc(N6CCc7[nH]c8nnc(-c9ccccc9O)cc8c7[C@H]6C)nc5)CC4)C3)C2)C(C)(C)C)cc1F` [I-310], on SMARCA2 [1], the Dmax was > 90%, the DC50 is 1 to 10 nM and the “Selectivity in MV411” value is “C (C (10-100 fold))”. Further, on SMARCA2 [2], the Dmax is > 90% and the half-maximal degradation concentration (DC50) was in the range of 10 to 50 nM. At SMARCA4, the Dmax was > 90% and the half-maximal degradation concentration (DC50) was > 100 nM.
For `C#Cc1ccc(CNC(=O)[C@@H]2C[C@@H](O)CN2C(=O)[C@@H](NC(=O)N2CC3(CC(N4CCC(c5cnc(N6CCc7[nH]c8nnc(-c9ccccc9O)cc8c7[C@H]6C)nc5)CC4)C3)C2)C(C)(C)CCN2CCOCC2)cc1` (single isomer, unassigned) [I-338], at SMARCA2 [1], the Dmax is < 50%, the 50% degradation concentration (DC50) was > 100 nM and the “Selectivity in MV411” value is recorded as “C (C (10-100 fold))”. For the same compound, at SMARCA2 [2], the Dmax is < 50% and the 50% degradation concentration (DC50) was > 100 nM. In addition, at SMARCA4, the Dmax is < 50% and the 50% degradation concentration (DC50) was > 100 nM.
`C#Cc1ccc(CNC(=O)[C@@H]2C[C@@H](O)CN2C(=O)[C@@H](NC(=O)N2CCN(C[C@H]3CCN(c4cnc(N5CCc6[nH]c7nnc(-c8ccccc8O)cc7c6[C@H]5C)nc4)C3)CC2)C(C)(C)C)cc1` (single isomer, unassigned) [I-162]: at SMARCA2 [1], the Dmax was 50 to 70%, the DC50 was 10 to 100 nM and the “Selectivity in MV411” value is given as “C (C (10-100 fold))”. For the same compound, at SMARCA2 [2], the greatest degradation seen (Dmax) is > 90% and the DC50 is > 100 nM. Besides, on SMARCA4, the maximal degradation (Dmax) was in the range of 50 to 70% and the DC50 is > 100 nM.
For the compound `C#Cc1ccc(CNC(=O)[C@@H]2C[C@@H](O)CN2C(=O)[C@@H](NC(=O)N2CC3(CC(N4CCC([C@H]5CC[C@@H](N6CCc7[nH]c8nnc(-c9ccccc9O)cc8c7[C@H]6C)CC5)CC4)C3)C2)C(C)(C)C)cc1` [I-185], on SMARCA2 [1], the Dmax was 70 to 90%, the DC50 lay within 10 to 100 nM and the “Selectivity in MV411” value was “C (C (10-100 fold))”. For the same compound, at SMARCA2 [2], the maximal degradation (Dmax) is > 90% and the 50% degradation concentration (DC50) is > 100 nM. Further, on SMARCA4, the maximal degradation (Dmax) fell in the range of 70 to 90% and the DC50 is > 100 nM.
Turning to `Cc1ncsc1-c1ccc(CNC(=O)[C@@H]2C[C@@H](O)CN2C(=O)[C@@H](NC(=O)C2(F)CC2)C(C)(C)C)c(O[C@H]2CC[C@H](N3CCC(c4cnc(N5CCc6[nH]c7nnc(-c8ccccc8O)cc7c6[C@H]5C)nc4)CC3)CC2)c1` (single isomer, unassigned) [I-30], on SMARCA2 [1], the maximal degradation (Dmax) was > 90%, the DC50 was < 1 nM and the “Selectivity in MV411” value is given as “D (D (<10 fold))”. In addition, on SMARCA2 [2], the greatest degradation seen (Dmax) is > 90% and the 50% degradation concentration (DC50) is < 10 nM. Moreover, on SMARCA4, the Dmax is > 90% and the half-maximal degradation concentration (DC50) was < 1 nM.
With `C#Cc1ccc(CNC(=O)[C@@H]2C[C@@H](O)CN2C(=O)[C@@H](NC(=O)N2CC3(CC(N4CCC(N5CCC(N6CCc7[nH]c8nnc(-c9ccccc9O)cc8c7[C@H]6C)CC5)CC4)C3)C2)C(C)(C)C)cc1` (single isomer, unassigned) [I-179], on SMARCA2 [1], the Dmax was in the range of 70 to 90%, the DC50 fell in the range of 10 to 100 nM and the “Selectivity in MV411” value was “B (B (>100-500 fold))”. Besides, at SMARCA2 [2], the Dmax was > 90% and the half-maximal degradation concentration (DC50) was > 100 nM. Moreover, on SMARCA4, the Dmax fell in the range of 50 to 70% and the DC50 is > 100 nM.
Regarding `C#Cc1ccc(CNC(=O)[C@@H]2C[C@@H](O)CN2C(=O)[C@@H](NC(=O)[C@H]2CC3(C2)C[C@H](c2cnc(N4CCC(N5CCN6c7cc(-c8ccccc8O)nnc7NC[C@H]6C5)CC4)nc2)C3)C(C)(C)C)cc1` (single isomer, unassigned) [I-301], the Dmax at SMARCA2 [1], at SMARCA2 [2] and at SMARCA4 was > 90% each time. Also, the half-maximal degradation concentration (DC50) on SMARCA2 [1] was 1 to 10 nM; on SMARCA2 [2], 10 to 50 nM; on SMARCA4, 10 to 100 nM. Besides, on SMARCA2 [1], the “Selectivity in MV411” value is “C (C (10-100 fold))”.
Regarding `C#Cc1ccc(CNC(=O)[C@@H]2C[C@@H](O)CN2C(=O)[C@@H](NC(=O)N2CCN(C[C@H]3CC[C@@H](N4CCc5[nH]c6nnc(-c7ccccc7O)cc6c5[C@H]4C)CC3)CC2)C(C)(C)C)cc1` [I-199], at SMARCA2 [1], the Dmax was 50 to 70%, the DC50 is 10 to 100 nM and the “Selectivity in MV411” value was “C (C (10-100 fold))”. Besides, at SMARCA2 [2], the Dmax is > 90% and the DC50 was > 100 nM. For the same compound, on SMARCA4, the Dmax was < 50% and the half-maximal degradation concentration (DC50) is > 100 nM.
On to `C#Cc1cc(Cl)c(CNC(=O)[C@@H]2C[C@@H](O)CN2C(=O)[C@@H](NC(=O)[C@H]2CC3(C2)C[C@H](N2CCC(N4CCC(N5CCN6c7cc(-c8ccccc8O)nnc7NC[C@H]6C5)CC4)CC2)C3)C(C)(C)C)c(OC)c1` (stereo partly drawn) [I-329], for which the “Selectivity in MV411” value at SMARCA2 [1] is listed as “D (D (<10 fold))”. Moreover, the DC50 on SMARCA2 [2] and at SMARCA4 was > 100 nM throughout.
In the case of `C#Cc1ccc(C2(NC(=O)[C@@H]3C[C@@H](O)CN3C(=O)[C@@H](NC(=O)[C@H]3CC4(C3)C[C@H](N3CCC(N5CCC(N6CCN7c8cc(-c9ccccc9O)nnc8NC[C@H]7C6)CC5)CC3)C4)C(C)(C)C)CC2)cc1` (single isomer, unassigned) [I-211], the values for the Dmax on SMARCA2 [1], at SMARCA2 [2] and on SMARCA4 were 70 to 90%, > 90% and < 50%, respectively. For the same compound, the half-maximal degradation concentration (DC50) at SMARCA2 [1] was 1 to 10 nM; on SMARCA2 [2] it was 50 to 100 nM; at SMARCA4, > 100 nM. Also, on SMARCA2 [1], the “Selectivity in MV411” value was “A (A (>500 fold))”.
For `Cc1ncsc1-c1ccc(CNC(=O)[C@@H]2C[C@@H](O)CN2C(=O)C(c2cc(OC[C@H]3CC[C@H](N4CCC(c5cnc(N6CCc7[nH]c8nnc(-c9ccccc9O)cc8c7[C@@H]6C)nc5)CC4)CC3)no2)C(C)C)cc1` (single isomer, unassigned) [I-15], the greatest degradation seen (Dmax) on SMARCA2 [1], on SMARCA2 [2] and at SMARCA4 was > 90% in each case. Also, the DC50 was in the range of 1 to 10 nM at SMARCA2 [1], 10 to 50 nM at SMARCA2 [2] and 10 to 100 nM on SMARCA4. The “Selectivity in MV411” value on SMARCA2 [1] was “C (C (10-100 fold))”.
